Among the data in the NIST ThermoML archive (doi:10.1016/j.jct.2010.12.020) are activity coefficient values, retold here.

The data set in a line: activity coefficient (dimensionless); of the first substance listed, at infinite dilution; xn = mol fraction of the nth substance listed. The settings on record: 101 kPa, Liquid, Chromatography, x1 = 0.

Structures are written as SMILES. Several values for one entry are separate records, joined by “and”; a condition that tells them apart may be missing. Equal entries are not always repeated. ± gives the expanded uncertainty stated by the source.

As to `CCCCCC` [hexane] + CCCCCCCC[N+](C)(CCCCCCCC)CCCCCCCC.O=C(O)c1ccccc1[S-], the activity coefficient is 2.07 ± 0.26 (303.15 K); 1.98 and 1.96 (313.15 K); 1.92 and 1.87 (323.15 K).
As to `C1CCCC1` [cyclopentane] + CCCCCCCC[N+](C)(CCCCCCCC)CCCCCCCC.O=C(O)c1ccccc1[S-], the activity coefficient (303.15 K) is 1.1 and 1.08; the activity coefficient (313.15 K) is 1.07 and 1.05; the activity coefficient (323.15 K) is 1.04 and 1.
`C1CCCCCCC1` [cyclooctane] + CCCCCCCC[N+](C)(CCCCCCCC)CCCCCCCC.O=C(O)c1ccccc1[S-]: the activity coefficient (303.15 K) is 1.57 ± 0.19; the activity coefficient (313.15 K) is 1.5 and 1.45; the activity coefficient (323.15 K) was 1.44 and 1.37.
With `c1ccccc1` [benzene] + CCCCCCCC[N+](C)(CCCCCCCC)CCCCCCCC.O=C(O)c1ccccc1[S-], the activity coefficient (303.15 K) was 0.51 and 0.48; the activity coefficient (313.15 K) is 0.5 and 0.48; the activity coefficient (323.15 K) was 0.5 and 0.47.
`C#CCCCC` [1-hexyne] + CCCCCCCC[N+](C)(CCCCCCCC)CCCCCCCC.O=C(O)c1ccccc1[S-]: the activity coefficient reads like this: (303.15 K) 0.7 and 0.69; (313.15 K) 0.72 ± 0.09; (323.15 K) 0.75 ± 0.09.
On to `C#CCCCCCC` [1-octyne] + CCCCCCCC[N+](C)(CCCCCCCC)CCCCCCCC.O=C(O)c1ccccc1[S-], for which the activity coefficient is, setting by setting: (303.15 K) 0.88 and 0.84; (313.15 K) 0.92 and 0.9; (323.15 K) 0.94 ± 0.11.
Regarding `CC(C)=O` [acetone] + CCCCCCCC[N+](C)(CCCCCCCC)CCCCCCCC.O=C(O)c1ccccc1[S-], the activity coefficient was 0.69 and 0.65 (303.15 K); 0.66 and 0.63 (313.15 K); 0.64 and 0.61 (323.15 K).
Turning to `C1CCCCC1` [cyclohexane] + CCCCCCCC[N+](C)(CCCCCCCC)CCCCCCCC.O=C(O)c1ccccc1[S-], the activity coefficient reads like this: (303.15 K) 1.34 and 1.32; (313.15 K) 1.28 and 1.26; (323.15 K) 1.23 and 1.19.
In the case of `C1CCCCCC1` [cycloheptane] + CCCCCCCC[N+](C)(CCCCCCCC)CCCCCCCC.O=C(O)c1ccccc1[S-], the activity coefficient (303.15 K) is 1.42 and 1.4; the activity coefficient (313.15 K) is 1.36 and 1.32; the activity coefficient (323.15 K) is 1.31 and 1.25.
With `CCCCCCCCC` [nonane] + CCCCCCCC[N+](C)(CCCCCCCC)CCCCCCCC.O=C(O)c1ccccc1[S-], the activity coefficient is, setting by setting: (303.15 K) 3.21 and 3.11; (313.15 K) 3.07 and 3.03; (323.15 K) 2.98 and 2.88.
Regarding `CCCCCCCC` [octane] + CCCCCCCC[N+](C)(CCCCCCCC)CCCCCCCC.O=C(O)c1ccccc1[S-], the activity coefficient is 2.77 and 2.72 (303.15 K); 2.68 and 2.61 (313.15 K); 2.55 and 2.47 (323.15 K).
Turning to `C=CCCCCCC` [oct-1-ene] + CCCCCCCC[N+](C)(CCCCCCCC)CCCCCCCC.O=C(O)c1ccccc1[S-], the activity coefficient was 2.09 and 2.06 (303.15 K); 2.06 and 2.02 (313.15 K); 2 and 1.93 (323.15 K).
Regarding `C=CCCC` [1-pentene] + CCCCCCCC[N+](C)(CCCCCCCC)CCCCCCCC.O=C(O)c1ccccc1[S-], the activity coefficient was 1.39 and 1.4 (303.15 K); 1.36 ± 0.17 (313.15 K); 1.33 and 1.28 (323.15 K).
`CCCCC` [pentane] + CCCCCCCC[N+](C)(CCCCCCCC)CCCCCCCC.O=C(O)c1ccccc1[S-]: the activity coefficient runs as follows: (303.15 K) 1.81 ± 0.22; (313.15 K) 1.75 ± 0.22; (323.15 K) 1.7 and 1.65.
For `C=CCCCC` [hex-1-ene] + CCCCCCCC[N+](C)(CCCCCCCC)CCCCCCCC.O=C(O)c1ccccc1[S-], the activity coefficient was 1.57 and 1.55 (303.15 K); 1.53 and 1.51 (313.15 K); 1.51 and 1.46 (323.15 K).
For `CCCCCCC` [heptane] + CCCCCCCC[N+](C)(CCCCCCCC)CCCCCCCC.O=C(O)c1ccccc1[S-], the activity coefficient is, setting by setting: (303.15 K) 2.37 and 2.28; (313.15 K) 2.29 and 2.22; (323.15 K) 2.21 and 2.15.
In the case of `CCC(C)=O` [butanone] + CCCCCCCC[N+](C)(CCCCCCCC)CCCCCCCC.O=C(O)c1ccccc1[S-], the activity coefficient (303.15 K) was 0.66 and 0.62; the activity coefficient (313.15 K) was 0.64 and 0.61; the activity coefficient (323.15 K) is 0.62 and 0.59.
With `C#CCCC` [1-pentyne] + CCCCCCCC[N+](C)(CCCCCCCC)CCCCCCCC.O=C(O)c1ccccc1[S-], the activity coefficient was found to be 0.63 ± 0.08 (303.15 K), 0.65 ± 0.08 (313.15 K) and 0.67 ± 0.08 (323.15 K).
Consider `Cc1ccccc1` [toluene] + CCCCCCCC[N+](C)(CCCCCCCC)CCCCCCCC.O=C(O)c1ccccc1[S-], for which the activity coefficient runs as follows: (303.15 K) 0.62 and 0.59; (313.15 K) 0.62 and 0.59; (323.15 K) 0.62 and 0.58.
